# Measured values from article PMC12196810, “A Dual Bioassay for Evaluation of Embryotoxicity and Acute Toxicity of Common Solvents and Surfactants in Artemia salina” (Toxics, 2025).
# “Also recorded” adds a separate entry of the source.
# Assays:
# Artemia salina nauplii = assay: Brine shrimp lethality test; settings: for LC50: nauplii, 0.05–5.0% (w/v) tested; for LC50 values: both timepoints (24 and 48 h), summary statement; for toxicity in the lethality test, in words: 24 and 48 h, 0.05–5% (w/v)
# Procedure: Artemia salina cysts were hatched in beakers filled with artificial sea water at a salinity of 35 g/L, under continuous aeration, and at a temperature of 25 ± 1 °C for 48 h and a light/dark cycle of 16/8 h. The constant conditions were maintained using a plant growth chamber (Sanyo MLR-351 H, San Diego, CA, USA). After hatching, the Artemia nauplii were separated and brought in aerated fresh artificial sea water. A number of ten nauplii were added in tissue culture plates containing 24 wells (Greiner Bio-One, Kremsmünster, Austria), along with the tested solutions [29, 30]. […] Artificial sea water was used as negative control and sodium lauryl sulfate as positive control. The artificial seawater was prepared according to the instructions provided by the Artemia egg manufacturer, using the supplied salts dissolved in distilled water. A total of 5 L was prepared, aerated, and stored at 4 °C, in dark for no more than two weeks. Before use, the artificial seawater was aerated again. […] The lethality values were calculated and were plotted against the logarithm of concentrations, using the least square fit method to obtain lethality curves. […] The photographs were taken using an ODC 825 Microscope Digital Camera (KERN, Balingen, Germany), with a resolution of 5.1 MP and a 1/2.5″ Aptina CMOS sensor, and processed using Microscope-VIS software 2.0 (KERN Balingen, Germany).
# Artemia salina cysts [1] = assay: Hatching and development of nauplii (stage groups A–D); assay type: in vivo; settings: for individuals reaching Group D (Instar I–III): 48 h
# Procedure: Each sample was monitored using a stereo-microscope (STMLAB, Monza, Italy) and a bright-field microscope (Euromex, Bscope series, Groningen, The Netherlands) at both moments of determination. After 48 h, a mixture of ethanol and acetic acid in the ratio of 3:1 (v/v) was added to each sample to ensure the preservation for further observations. Depending on the development stage of each sample, the hatching process was divided into four main groups (A–D), and expressed as percents (%). The first group were the unhatched eggs (group A) that remain unchanged between the rehydration operation and the moment of observation; in the second group were the eggs with a broken shell (group B) with evident cracks and modified shape; the third category corresponds to the hatching moment, and it was noted as stage 0 (group C), when the nauplii are pear-shaped or umbrella-shaped and immobile; the fourth stage corresponds to larval stages that comprise the naupliar development stages Instar I–III (group D). All samples were compared to the untreated control to identify non-disruptive concentrations and solvent compatibility for future hatching assays.
# Artemia salina cysts [2] = assay: Hatching inhibition test; assay type: in vivo; settings: for IC50 (hatching inhibition): cysts, 0.1–2.5% (w/v) tested; for inhibition of hatching, in words: 0.1–2.5%
# Procedure: SLS was used as positive control and artificial sea water as negative control. The determination was performed according to the protocols described in the literature, with some modifications.
# Each sample was performed in duplicate, and artificial sea water was used as control. The hatching process was monitored at 24 and 48 h, and stages 0 and Instar I–III were considered for the quantification. Randomization and blinding were not applied in the assays, as the evaluation of developmental stages is considered objective and unlikely to be influenced by observer bias. The inhibition of the hatching (HI) process was calculated versus the control using the formula presented by Rotini et al.. HI50 was calculated by interpolating on the curves plotted, using the logarithm of concentrations and the hatching inhibition (%) with the least square fit method.
# [3] = all concentrations (0.1–2.5%), 24 and 48 h
# [4] = 48 h, all concentrations (0.05–5%)
Molecule,LC50 (Artemia salina nauplii; 24 h exposure) [%],"lethality (Artemia salina nauplii; 48 h, concentrations ≥ 1%) [%]",LC50 (Artemia salina nauplii; 48 h exposure) [%],"toxicity in the lethality test, in words (Artemia salina nauplii)","effect on development, in words (Artemia salina cysts [1]; 0.1–2.5%, 24 and 48 h)","inhibition of hatching, in words (Artemia salina cysts [2]; 24 and 48 h)",other results
sodium xylenesulfonate [SXS],1.01,100,0.79,–,–,–,"LC50 values (Artemia salina nauplii): ≤ 1%; effect on development, in words (Artemia salina cysts [1]; at 2.5%): no development beyond Group B occurred; IC50 (hatching inhibition) (Artemia salina cysts [2]; 24 h): 0.28%; IC50 (hatching inhibition) (Artemia salina cysts [2]; 48 h): 0.41%; inhibition of hatching (Artemia salina cysts [2]; at 2.5%): 100%"
Tween 20,–,–,–,such high mortality at all tested concentrations,–,–,–
Tween 80,–,–,–,such high mortality at all tested concentrations,–,–,–
"NC(N)=O [Urea, urea]",1.11,–,0.74,moderate toxicity,–,–,"effect on development, in words (Artemia salina cysts [1]; at 2.5%): some developmental delay; inhibition of hatching (Artemia salina cysts [2]; [3]): under 50%"
"Cc1ccc(S(=O)(=O)O)cc1.[Na] [PTS, sodium p-toluenesulfonate]",–,100,–,highly toxic,–,–,"lethality (Artemia salina nauplii; 24 h, highest concentration (5%)): 100%; lethality (Artemia salina nauplii; 48 h, at 0.1%): 90%; LC50 values (Artemia salina nauplii): ≤ 1%; individuals reaching Group D (Instar I–III) (Artemia salina cysts [1]; at 1%): over 60%; effect on development, in words (Artemia salina cysts [1]; at 2.5%): Groups A and B became dominant; IC50 (hatching inhibition) (Artemia salina cysts [2]; 24 h): ~2.49%; inhibition of hatching (Artemia salina cysts [2]; at 2.5%): strong suppression"
"O=S(=O)([O-])c1cccc(S(=O)(=O)[O-])c1.[Na+].[Na+] [SBDS, sodium benzene-1,3-disulfonate]",–,–,–,–,low impact on embryonic development,–,inhibition of hatching (Artemia salina cysts [2]; [3]): under 50%
"CN(C)C(N)=O [DMU, N,N-dimethylurea]",0.94,100,0.08,moderate toxicity,–,–,individuals reaching Group D (Instar I–III) (Artemia salina cysts [1]; at 0.1%): over 80%; inhibition of hatching (Artemia salina cysts [2]; [3]): under 50%
"CN(C)C(=O)c1ccccc1 [DMBA, N,N-dimethylbenzamide]",0.13,100,0.09,highly toxic,–,–,"lethality (Artemia salina nauplii; 24 h, down to 0.5%): 100%; lethality (Artemia salina nauplii; 48 h, at 0.1%): 75%; LC50 values (Artemia salina nauplii): ≤ 1%; effect on development, in words (Artemia salina cysts [1]; from 0.5% upward): no significant presence in Group D; IC50 (hatching inhibition) (Artemia salina cysts [2]; 24 h): 0.27%; inhibition of hatching (Artemia salina cysts [2]; 24 h, high concentrations): exceeding 90%; IC50 (hatching inhibition) (Artemia salina cysts [2]; 48 h): 19.23%"
"C[S+](C)[O-] [DMSO, dimethyl sulfoxide]",–,–,–,moderate-to-low toxicity; also recorded: very low toxicity,very low developmental toxicity,very low or no inhibition; also recorded: minimal or no inhibition,"toxicity in the lethality test, in words (Artemia salina nauplii; listed as dimethyl sulfoxide): low toxicity; lethality (maximum) (Artemia salina nauplii; 24 h, at 0.1%): 25%; lethality (peak) (Artemia salina nauplii; 48 h, at 0.5%): 45%; embryos developed fully (Group D) (Artemia salina cysts [1]; at 2.5%): over 80%"
"CC(O)CO (stereo not shown) [PDO, propylene glycol]",–,–,1.64,very low toxicity,minimal interference,very low or no inhibition; also recorded: minimal or no inhibition,"toxicity in the lethality test, in words (Artemia salina nauplii; listed as propylene glycol): low toxicity; lethality (Artemia salina nauplii; 48 h, highest concentration (5%)): 95%"
"OCC(O)CO [GLY, glycerol]",–,–,–,very low toxicity,negligible impact on development,very low or no inhibition; also recorded: minimal or no inhibition,"toxicity in the lethality test, in words (Artemia salina nauplii; listed as Glycerin): low toxicity; lethality (Artemia salina nauplii; [4]): up to 40%"
"O=S(=O)([O-])c1ccccc1.[Na+] [SBS, sodium benzenesulfonate]",0.93,100,0.21,moderate toxicity,moderate developmental delay,only moderate suppression,–
"CCCCCCCCCCCCOS(=O)(=O)[O-].[Na+] [SLS, sodium lauryl sulfate, reference compound]",–,–,–,highly toxic; also recorded: such high mortality at all tested concentrations,complete developmental arrest,complete or near complete inhibition,"lethality (Artemia salina nauplii; 24 h, across all concentrations (0.05–5%)): 100%; lethality (Artemia salina nauplii; [4]): 100%"
"CN(C)C=O [DMF, dimethylformamide]",1.24,–,1.06,moderate toxicity,–,–,"lethality (Artemia salina nauplii; 48 h, at 1%): up to 80%"
"CCN(CC)C(=O)c1cccnc1 [DENA, N,N-diethylnicotinamide]",0.22,100,0.05,highly toxic,–,–,"lethality (Artemia salina nauplii; 48 h, at 0.1%): 45%; effect on development, in words (Artemia salina cysts [1]; at 2.5%): development was arrested in Groups A and B; IC50 (hatching inhibition) (Artemia salina cysts [2]; 24 h): 0.97%; IC50 (hatching inhibition) (Artemia salina cysts [2]; 48 h): 1.10%; inhibition of hatching (Artemia salina cysts [2]; at 2.5%): full inhibition"
